In DBAASP:
≈ marks a conversion by molar mass, not a printed value. One block for each compound: values may come before it.

Key:
Test in all cases: ≥ marks a high value that may be exact or a test limit, other limits are often not marked, values filed in µg/mL are converted to µM
[1] = tested on: Listeria monocytogenes BCRC 14845
Trichomonas vaginalis T1 = tested on: Trichomonas vaginalis T1
[2] = tested on: Trichomonas vaginalis ATCC 50143
[3] = tested on: Trichomonas vaginalis ATCC 30001
Vibrio alginolyticus = tested on: Vibrio alginolyticus
[4] = tested on: Vibrio vulnificus BCRC 12905
[5] = tested on: Klebsiella pneumoniae ATCC 13883
[6] = tested on: Staphylococcus aureus ATCC BAA-44
[7] = tested on: Acinetobacter baumannii ATCC 19606
[8] = tested on: Staphylococcus aureus ATCC 25923
[9] = tested on: Pseudomonas aeruginosa ATCC 27853
[10] = tested on: Candida parapsilosis ATCC 22019
[11] = tested on: Candida albicans ATCC 90028
[12] = tested on: Escherichia coli ATCC 25922
Listeria ivanovii = tested on: Listeria ivanovii
[13] = tested on: Enterococcus faecalis ATCC 29212
Streptococcus agalactiae = tested on: Streptococcus agalactiae
[14] = tested on: Pseudomonas aeruginosa ATCC 9027
Candida glabrata = tested on: Candida glabrata
[15] = tested on: Mycobacterium tuberculosis H37Rv
[16] = tested on: Mycobacterium tuberculosis
Candida albicans = tested on: Candida albicans
Staphylococcus aureus 1 = tested on: Staphylococcus aureus 1
Escherichia coli B = tested on: Escherichia coli B
[17] = tested on: Staphylococcus epidermidis
Bacillus subtilis 168 = tested on: Bacillus subtilis 168
[18] = tested on: Candida albicans F7-39/IDE99
[19] = tested on: Staphylococcus aureus ATCC 43300
Pseudomonas aeruginosa = tested on: Pseudomonas aeruginosa
[20] = tested on: Micrococcus luteus CCM 144
Staphylococcus aureus = tested on: Staphylococcus aureus
[21] = tested on: Staphylococcus aureus CMCC 26003
Escherichia coli K88 = tested on: Escherichia coli K88
[22] = tested on: Micrococcus luteus CVCC 28001
[23] = tested on: Listeria monocytogenes CVCC 1599
[24] = tested on: Escherichia coli CVCC 245
[25] = tested on: Escherichia coli DH5alpha
Staphylococcus xylosus = tested on: Staphylococcus xylosus
[26] = tested on: Candida albicans CCARM 14020
[27] = tested on: Candida albicans CCARM 14022
[28] = tested on: Candida albicans CCARM 14021
Candida albicans SC5314 = tested on: Candida albicans SC5314
[29] = tested on: Lactiplantibacillus plantarum 965
[30] = tested on: Latilactobacillus sakei NCDO 2714

Compound: CSCC[C@H](NC(=O)[C@H](CCCN=C(N)N)NC(=O)CNC(=O)[C@H](CCCCN)NC(=O)[C@H](Cc1ccc(O)cc1)NC(=O)[C@H](Cc1ccc(O)cc1)NC(=O)[C@@H](NC(=O)[C@H](CCC(N)=O)NC(=O)[C@H](Cc1ccccc1)NC(=O)[C@H](CCCN=C(N)N)NC(=O)[C@H](CCCCN)NC(=O)[C@H](CC(C)C)NC(=O)[C@H](Cc1ccc(O)cc1)NC(=O)[C@@H]1CCCN1C(=O)[C@H](CCCCN)NC(=O)[C@@H](NC(=O)[C@@H](NC(=O)[C@H](Cc1ccccc1)NC(=O)[C@H](CCCCN)NC(=O)[C@H](CS)NC(=O)[C@H](CCC(=O)O)NC(C)=O)[C@@H](C)O)C(C)C)C(C)C)C(=O)N[C@@H](Cc1c[nH]c2ccccc12)C(=O)N[C@@H](CS)C(=O)N1CCC[C@H]1C(N)=O [ECKFTVKPYLKRFQVYYKGRMWCP]
MIC [1]: 8.14 µM (≈ 25.3 µg/mL)
MIC (Trichomonas vaginalis T1): ≥ 65.1 µM
MIC [2]: 8.14 µM (≈ 25.3 µg/mL)
MIC [3]: ≥ 32.6 µM
MIC (Vibrio alginolyticus): ≥ 32.6 µM
MIC [4]: ≥ 32.6 µM

Compound: CC[C@H](C)[C@H](NC(=O)[C@H](CCCCN)NC(=O)[C@H](CCCCN)NC(=O)[C@H](Cc1ccccc1)NC(=O)[C@H](CC(C)C)NC(=O)[C@H](CCCCN)NC(=O)[C@H](Cc1c[nH]c2ccccc12)NC(=O)[C@@H](N)CCCCN)C(=O)N[C@@H](Cc1ccccc1)C(=O)N[C@@H](CCCCN)C(=O)N[C@@H](CCCN=C(N)N)C(=O)N[C@H](C(=O)N[C@H](C(=O)N[C@@H](CCC(N)=O)C(=O)N[C@@H](CCCN=C(N)N)C(=O)N[C@H](C(=O)N[C@@H](CCCCN)C(=O)N[C@@H](CC(=O)O)C(=O)N[C@@H](Cc1ccccc1)C(=O)N[C@@H](CC(C)C)C(=O)N[C@@H](CCCN=C(N)N)C(=O)N[C@@H](CC(N)=O)C(=O)O)[C@@H](C)CC)C(C)C)[C@@H](C)CC [KWKLFKKIFKRIVQRIKDFLRN]
MIC [8]: 0.688 µM (≈ 2 µg/mL)
MIC [21]: 2.41 µM (≈ 7 µg/mL)
MIC (Escherichia coli K88): 2.75 µM (≈ 8 µg/mL)
MIC [22]: 5.51 µM (≈ 16 µg/mL)
MIC [23]: 0.688 µM (≈ 2 µg/mL)
MIC [24]: 2.41 µM (≈ 7 µg/mL)

Compound: NC(N)=NCCC[C@H](NC(=O)[C@H](CCCN=C(N)N)NC(=O)[C@H](CCCN=C(N)N)NC(=O)[C@H](Cc1ccccc1)NC(=O)[C@H](Cc1ccccc1)NC(=O)[C@H](Cc1ccccc1)NC(=O)[C@H](Cc1ccccc1)NC(=O)[C@H](Cc1ccccc1)NC(=O)[C@H](CCCN=C(N)N)NC(=O)[C@H](CCCN=C(N)N)NC(=O)[C@@H](N)CCCN=C(N)N)C(=O)O [RRRFFFFFRRR]
MIC [25]: 4 µM (≈ 6.76 µg/mL)
MIC (Staphylococcus xylosus): 0.5 µM (≈ 0.846 µg/mL)

Compound: CC(C)C[C@H](NC(=O)[C@@H](N)Cc1c[nH]c2ccccc12)C(=O)N[C@@H](CC(N)=O)C(=O)N[C@@H](C)C(=O)N[C@@H](CCCCN)C(=O)N[C@@H](CCCN=C(N)N)C(=O)N[C@@H](Cc1cnc[nH]1)C(=O)N[C@@H](Cc1cnc[nH]1)C(=O)NCC(=O)N[C@@H](Cc1ccc(O)cc1)C(=O)N[C@@H](CCCCN)C(=O)N[C@@H](CCCN=C(N)N)C(=O)N[C@@H](CCCCN)C(=O)N[C@@H](Cc1ccccc1)C(=O)N[C@@H](Cc1cnc[nH]1)C(N)=O [WLNAKRHHGYKRKFH]
MIC [26]: 2.86 µM (≈ 5.65 µg/mL)
MIC [27]: 16.2 µM (≈ 32 µg/mL)
MIC [28]: 5.72 µM (≈ 11.3 µg/mL)
MIC (Candida albicans SC5314): 2.86 µM (≈ 5.65 µg/mL)

Compound: CSCC[C@H](NC(=O)[C@H](CCC(N)=O)NC(=O)[C@H](CC(C)C)NC(=O)[C@H](CO)NC(=O)[C@@H](N)Cc1ccc(O)cc1)C(=O)O [YSLQM]
MIC [29]: 10 µM (≈ 6.41 µg/mL)
MIC [30]: 1 µM (≈ 0.641 µg/mL)

Second part, the compound after the results:

MIC [5]: 6 µM (≈ 15.3 µg/mL)
MIC [6]: 3 µM (≈ 7.64 µg/mL)
MIC [7]: 3 µM (≈ 7.64 µg/mL)
MIC [8]: 3 µM (≈ 7.64 µg/mL)
MIC [9]: 6 µM (≈ 15.3 µg/mL)
MIC [10]: ≥ 50 µM
MIC [11]: 25 µM (≈ 63.7 µg/mL)
MIC [12]: 4.24 µM (≈ 10.8 µg/mL)
MIC (Listeria ivanovii): 3 µM (≈ 7.64 µg/mL)
MIC [13]: 12.5 µM (≈ 31.8 µg/mL)
Compound: CC(C)C[C@H](NC(=O)[C@H](CCCN=C(N)N)NC(=O)CNC(=O)[C@H](Cc1ccccc1)NC(=O)[C@@H](N)Cc1ccccc1)C(=O)N[C@@H](CCCCN)C(=O)N[C@@H](CO)C(=O)N[C@H](C(=O)N[C@@H](Cc1c[nH]c2ccccc12)C(=O)N[C@@H](CO)C(=O)N[C@@H](C)C(=O)N[C@H](C(=O)N[C@@H](CCCCN)C(=O)N[C@@H](Cc1cnc[nH]1)C(=O)NCC(=O)N[C@@H](Cc1c[nH]c2ccccc12)C(=O)N[C@@H](CCCCN)C(=O)N[C@@H](C)C(=O)N[C@@H](C)C(=O)N[C@@H](CCCCN)C(=O)N[C@@H](CO)C(=O)N[C@@H](CCCN=C(N)N)C(=O)O)C(C)C)C(C)C [FFGRLKSVWSAVKHGWKAAKSR]

MIC (Streptococcus agalactiae): 5 µM (≈ 9.3 µg/mL)
MIC [14]: 5 µM (≈ 9.3 µg/mL)
MIC [8]: 5 µM (≈ 9.3 µg/mL)
MIC (Candida glabrata): ≥ 50 µM
MIC [15]: 5.4 µM (≈ 10 µg/mL)
MIC [16]: 8.6 µM (≈ 16 µg/mL)
MIC [12]: 24 µM (≈ 44.6 µg/mL)
MIC (Candida albicans): 6.25 µM (≈ 11.6 µg/mL)
Compound: CC[C@H](C)[C@H](NC(=O)[C@H](CCCCN)NC(=O)[C@H](CCCCN)NC(=O)[C@@H](NC(=O)[C@H](C)NC(=O)[C@H](CO)NC(=O)[C@@H](NC(=O)[C@H](C)NC(=O)[C@H](CO)NC(=O)[C@@H]1CCCN1C(=O)[C@@H](NC(=O)[C@H](CC(C)C)NC(=O)[C@H](CO)NC(=O)[C@H](CC(C)C)NC(=O)[C@H](CC(C)C)NC(=O)[C@H](Cc1ccccc1)NC(=O)[C@@H](N)Cc1ccccc1)[C@@H](C)CC)[C@@H](C)CC)[C@@H](C)CC)C(N)=O [FFLLSLIPSAISAIKKI]

MIC (Staphylococcus aureus 1): ≥ 35 µM
MIC [9]: 47 µM (≈ 81 µg/mL)
MIC (Escherichia coli B): 12 µM (≈ 20.7 µg/mL)
MIC [17]: 8.8 µM (≈ 15.2 µg/mL)
MIC (Bacillus subtilis 168): 7 µM (≈ 12.1 µg/mL)
MIC [18]: 12 µM (≈ 20.7 µg/mL)
MIC [19]: 43 µM (≈ 74.1 µg/mL)
MIC (Pseudomonas aeruginosa): > 100 µM
MIC [20]: 3 µM (≈ 5.17 µg/mL)
MIC (Staphylococcus aureus): 65 µM (≈ 112 µg/mL)
Compound: CC[C@H](C)[C@H](NC(=O)CN)C(=O)N[C@@H](CCSC)C(=O)N[C@H](C(=O)N[C@@H](CO)C(=O)N[C@@H](CC(C)C)C(=O)N[C@@H](CCSC)C(=O)N[C@@H](CCCCN)C(=O)N[C@@H](CCCCN)C(=O)N[C@@H](CC(C)C)C(=O)N[C@@H](C)C(=O)N[C@@H](C)C(=O)N[C@@H](Cc1cnc[nH]1)C(=O)N[C@H](C(=O)N[C@@H](C)C(=O)N[C@@H](CCCCN)C(N)=O)[C@@H](C)CC)[C@@H](C)CC [GIMISLMKKLAAHIAK]
